Measured values from ChEMBL document CHEMBL2440076, “New triarylpyrazoles as broad-spectrum anticancer agents: design, synthesis, and biological evaluation” (Eur J Med Chem, 2013).

Key:
OVCAR-3 = test: Growth inhibition of human OVCAR3 cells assessed as cell growth at 10 uM after 48 hrs by sulforhodamine B assay; type: functional; settings: OVCAR-3, 48 h, read-out: Activity
HCT-15 = test: Growth inhibition of human HCT15 cells after 48 hrs by sulforhodamine B assay; type: functional; settings: HCT-15, 48 h
M14 = test: Growth inhibition of human M14 cells after 48 hrs by sulforhodamine B assay; type: functional; settings: M14, 48 h
NCI-H460 = test: Growth inhibition of human NCI-H460 cells after 48 hrs by sulforhodamine B assay; type: functional; settings: NCI-H460, 48 h
CAKI-1 = test: Growth inhibition of human CAKI-1 cells after 48 hrs by sulforhodamine B assay; type: functional; settings: CAKI-1, 48 h
NCI-H522 = test: Growth inhibition of human NCI-H522 cells assessed as cell growth at 10 uM after 48 hrs by sulforhodamine B assay; type: functional; settings: NCI-H522, 48 h, read-out: Activity
SK-OV-3 = test: Growth inhibition of human SKOV3 cells assessed as cell growth at 10 uM after 48 hrs by sulforhodamine B assay; type: functional; settings: SK-OV-3, 48 h, read-out: Activity
[1] = Growth inhibition of human NCI-ADR-RES cells after 48 hrs by sulforhodamine B assay; type: functional
OVCAR-8 [2] = test: Growth inhibition of human OVCAR8 cells assessed as cell growth at 10 uM after 48 hrs by sulforhodamine B assay; type: functional; settings: OVCAR-8, 48 h, read-out: Activity
PC-3 = test: Growth inhibition of human PC3 cells assessed as cell growth at 10 uM after 48 hrs by sulforhodamine B assay; type: functional; settings: PC-3, 48 h, read-out: Activity
U-251 [3] = test: Growth inhibition of human U251 cells assessed as cell growth at 10 uM after 48 hrs by sulforhodamine B assay; type: functional; settings: U-251, 48 h, read-out: Activity
COLO 205 = test: Growth inhibition of human COLO205 cells assessed as cell growth at 10 uM after 48 hrs by sulforhodamine B assay; type: functional; settings: COLO 205, 48 h, read-out: Activity
T47D = test: Growth inhibition of human T47D cells assessed as cell growth at 10 uM after 48 hrs by sulforhodamine B assay; type: functional; settings: read-out: Activity
UO-31 [4] = test: Growth inhibition of human UO31 cells after 48 hrs by sulforhodamine B assay; type: functional; settings: UO-31, 48 h
HL-60(TB) = test: Growth inhibition of human HL-60(TB) cells assessed as cell growth at 10 uM after 48 hrs by sulforhodamine B assay; type: functional; settings: HL-60, 48 h, read-out: Activity
OVCAR-5 [5] = test: Growth inhibition of human OVCAR5 cells assessed as cell growth at 10 uM after 48 hrs by sulforhodamine B assay; type: functional; settings: OVCAR-5, 48 h, read-out: Activity
OVCAR-5 [6] = test: Growth inhibition of human OVCAR5 cells after 48 hrs by sulforhodamine B assay; type: functional; settings: OVCAR-5, 48 h
OVCAR-8 [7] = test: Growth inhibition of human OVCAR8 cells after 48 hrs by sulforhodamine B assay; type: functional; settings: OVCAR-8, 48 h
HOP-62 [8] = test: Growth inhibition of human HOP62 cells assessed as cell growth at 10 uM after 48 hrs by sulforhodamine B assay; type: functional; settings: HOP-62, 48 h, read-out: Activity
UO-31 [9] = test: Growth inhibition of human UO31 cells assessed as cell growth at 10 uM after 48 hrs by sulforhodamine B assay; type: functional; settings: UO-31, 48 h, read-out: Activity
SK-MEL-5 = test: Growth inhibition of human SK-MEL-5 cells after 48 hrs by sulforhodamine B assay; type: functional; settings: SK-MEL-5, 48 h
[10] = Growth inhibition of human Hs 578T cells assessed as cell growth at 10 uM after 48 hrs by sulforhodamine B assay; type: functional; settings: read-out: Activity
U-251 [11] = test: Growth inhibition of human U251 cells after 48 hrs by sulforhodamine B assay; type: functional; settings: U-251, 48 h
MDA-MB-435 = test: Growth inhibition of human MDA-MB-435 cells after 48 hrs by sulforhodamine B assay; type: functional, cell-based; settings: MDA-MB-435, 48 h
SF-268 [12] = test: Growth inhibition of human SF268 cells after 48 hrs by sulforhodamine B assay; type: functional; settings: SF-268, 48 h
SF-268 [13] = test: Growth inhibition of human SF268 cells assessed as cell growth at 10 uM after 48 hrs by sulforhodamine B assay; type: functional; settings: SF-268, 48 h, read-out: Activity
Malme-3M = test: Growth inhibition of human MALME-3M cells after 48 hrs by sulforhodamine B assay; type: functional
HOP-62 [14] = test: Growth inhibition of human HOP62 cells after 48 hrs by sulforhodamine B assay; type: functional; settings: HOP-62, 48 h
[15] = Growth inhibition of human NCI-ADR-RES cells assessed as cell growth at 10 uM after 48 hrs by sulforhodamine B assay; type: functional; settings: read-out: Activity
786-0 = test: Growth inhibition of human 786-0 cells after 48 hrs by sulforhodamine B assay; type: functional; settings: 786-0, 48 h
NCI-H23 = test: Growth inhibition of human NCI-H23 cells after 48 hrs by sulforhodamine B assay; type: functional; settings: NCI-H23, 48 h
CCRF-CEM = test: Growth inhibition of human CCRF-CEM cells after 48 hrs by sulforhodamine B assay; type: functional
MOLT-4 = test: Growth inhibition of human MOLT4 cells after 48 hrs by sulforhodamine B assay; type: functional; settings: MOLT-4, 48 h
OVCAR-4 = test: Growth inhibition of human OVCAR4 cells after 48 hrs by sulforhodamine B assay; type: functional; settings: OVCAR-4, 48 h
SR = test: Growth inhibition of human SR cells after 48 hrs by sulforhodamine B assay; type: functional
[16] = read-out: LC50 (the source's name)

SMILES: COc1cc(-c2nn(-c3cccc(NC(=O)Nc4ccc(Cl)c(Cl)c4)c3)cc2-c2ccncc2)ccc1Cl
- growth at 10 µM (OVCAR-3): -10%
- GI50 (HCT-15): 1230 nM
- LC50 (HCT-15): > 50000 nM
- TGI (HCT-15): > 50000 nM
- GI50 (M14): 911 nM
- LC50 (concentration killing 50% of cells) (M14): 41200 nM
- TGI (M14): 2690 nM
- GI50 (NCI-H460): 1110 nM
- LC50 (NCI-H460): > 50000 nM
- TGI (NCI-H460): > 50000 nM
- GI50 (CAKI-1): 1120 nM
- TGI (CAKI-1): 3700 nM
- CC50 (CAKI-1; [16]): > 50000 nM
- growth at 10 µM (NCI-H522): -14.7%
- growth at 10 µM (SK-OV-3): 11.8%
- GI50 [1]: 990 nM
- TGI [1]: 4670 nM
- CC50 [1, 16]: > 50000 nM
- growth at 10 µM (OVCAR-8 [2]): -17.2%
- growth at 10 µM (PC-3): -17.6%
- growth at 10 µM (U-251 [3]): -6.02%
- growth at 10 µM (COLO 205): -80.4%
- growth at 10 µM (T47D): 2.98%
- GI50 (UO-31 [4]): 845 nM
- TGI (UO-31 [4]): 4980 nM
- CC50 (UO-31 [4]; [16]): > 50000 nM
- growth at 10 µM (HL-60(TB)): -18.1%
- growth at 10 µM (OVCAR-5 [5]): 38%
- GI50 (OVCAR-5 [6]): 2130 nM
- LC50 (concentration killing 50% of cells) (OVCAR-5 [6]): > 50000 nM
- TGI (OVCAR-5 [6]): > 50000 nM
- GI50 (OVCAR-8 [7]): 931 nM
- TGI (OVCAR-8 [7]): 3610 nM
- CC50 (OVCAR-8 [7]; [16]): > 50000 nM
- growth at 10 µM (HOP-62 [8]): 10.2%
- growth at 10 µM (UO-31 [9]): 15.9%
- GI50 (SK-MEL-5): 741 nM
- LC50 (concentration killing 50% of cells) (SK-MEL-5): 3020 nM
- TGI (SK-MEL-5): 1490 nM
- growth at 10 µM [10]: -6.95%
- GI50 (U-251 [11]): 820 nM
- LC50 (concentration killing 50% of cells) (U-251 [11]): > 50000 nM
- TGI (U-251 [11]): 2470 nM
- GI50 (MDA-MB-435): 938 nM
- IC50 (MDA-MB-435): 940 nM
- TGI (MDA-MB-435): 2390 nM
- CC50 (MDA-MB-435; [16]): > 50000 nM
- GI50 (SF-268 [12]): 1510 nM
- TGI (SF-268 [12]): 20300 nM
- CC50 (SF-268 [12]; [16]): > 50000 nM
- growth at 10 µM (SF-268 [13]): 17.9%
- GI50 (Malme-3M): 926 nM
- LC50 (concentration killing 50% of starting cells) (Malme-3M): > 50000 nM
- TGI (Malme-3M): 2420 nM
- GI50 (HOP-62 [14]): 1440 nM
- TGI (HOP-62 [14]): 4900 nM
- CC50 (HOP-62 [14]; [16]): > 50000 nM
- growth at 10 µM [15]: 0.32%
- GI50 (786-0): 1310 nM
- TGI (786-0): 4470 nM
- CC50 (786-0; [16]): > 50000 nM
- GI50 (NCI-H23): 1410 nM
- LC50 (NCI-H23): > 50000 nM
- TGI (NCI-H23): 5190 nM
- GI50 (CCRF-CEM): 1040 nM
- LC50 (CCRF-CEM): > 50000 nM
- GI50 (MOLT-4): 1100 nM
- TGI (MOLT-4): 4480 nM
- CC50 (MOLT-4; [16]): > 50000 nM
- GI50 (OVCAR-4): 1290 nM
- LC50 (concentration killing 50% of cells) (OVCAR-4): > 50000 nM
- TGI (OVCAR-4): > 50000 nM
- GI50 (SR): 932 nM
- TGI (SR): 2800 nM
- CC50 (SR; [16]): > 50000 nM
